Assay results from ChEMBL document CHEMBL5120831, “Pep5-based antitumor peptides containing multifunctional fragments with enhanced activity and synergistic effect” (Eur J Med Chem, 2022).
Calls of active or inactive are those of the source. The rule behind the calls is not given here. Bridge positions count the residues as written; N and C are the ends. Peptide text beside a SMILES is read from it. I, II: the chains in the order shown.

Legend:
[1] = Cytotoxicity against human BEAS-2B cells assessed as reduction in cell viability measured after 24 hrs by CCK-8 assay; type: toxicity, cell-based
BEAS-2B = assay: Induction of apoptosis in human BEAS-2B cells assessed as reduction in viable cells at 15 uM measured after 24 hrs by Annexin V-FITC/propidium iodide staining based flow cytometry; type: toxicity, cell-based
HepG2 [2] = assay: Cytotoxicity against human HepG2 cells assessed as reduction in cell viability measured after 24 hrs by CCK-8 assay; type: functional, cell-based; details: for IC50: HepG2, 24 h
A549 [3] = assay: Induction of apoptosis in human A549 cells assessed as increase in necrotic cells at 15 uM measured after 24 hrs by Annexin V-FITC/propidium iodide staining based flow cytometry; type: functional, cell-based
HepG2 [4] = assay: Antitumor activity against human HepG2 cells xenografted in BALB/c nude mouse assessed as appearance of fuzzy boundary region at 25 to 50 uM, sc administered at 1 day interval for 9 days and measured on day 11 by H and E staining based histological analysis; type: functional, organism-based; details: dose 25-50 µM, time 11.0 day
HepG2 [5] = assay: Antitumor activity against human HepG2 cells xenografted in BALB/c nude mouse assessed as induction of apoptosis at 25 to 50 uM, sc administered at 1 day interval for 9 days and measured on day 11 by TUNEL staining based assay; type: functional, organism-based; details: dose 25-50 µM, time 11.0 day
HepG2 [6] = assay: Induction of cell membrane disruption in human HepG2 cells assessed as increase in LDH release at 15 uM measured after 1 hr by LDH releasing reagent based assay
A549 [7] = assay: Cytotoxicity against human A549 cells assessed as reduction in cell viability measured after 24 hrs by CCK-8 assay; type: functional, cell-based; details: for IC50: A549, 24 h
A549 [8] = assay: Induction of cell membrane disruption in human A549 cells assessed as increase in LDH release at 15 uM measured after 1 hr by LDH releasing reagent based assay
HepG2 [9] = assay: Antitumor activity against human HepG2 cells xenografted in sc dosed BALB/c nude mouse assessed as tumor growth inhibition administered at 1 day interval for 9 days; type: functional, organism-based; details: dose 25-50 µM, time 9.0 day, DDE = dose-dependent effect
HepG2 [10] = assay: Antitumor activity against human HepG2 cells xenografted in BALB/c nude mouse assessed as missing nuclei at 25 to 50 uM, sc administered at 1 day interval for 9 days and measured on day 11 by H and E staining based histological analysis; type: functional, organism-based; details: dose 25-50 µM, time 11.0 day
L02 = assay: Induction of apoptosis in human L02 cells assessed as reduction in viable cells at 15 uM measured after 24 hrs by Annexin V-FITC/propidium iodide staining based flow cytometry; type: toxicity, cell-based; details: l02, 24 h
HepG2 [11] = assay: Antitumor activity against human HepG2 cells xenografted in BALB/c nude mouse assessed as reduction in tumor volume at 25 to 50 uM, sc administered at 1 day interval for 9 days; type: functional, organism-based; details: dose 25-50 µM, time 9.0 day
HepG2 [12] = assay: Induction of morphological changes in human HepG2 cells assessed as appearance of abnormal cell morphology at 15 uM measured after 24 hrs by high-throughput microscopy; type: functional, cell-based
HepG2 [13] = assay: Induction of morphological changes in human HepG2 cells assessed as decrease in cell number at 15 uM measured after 24 hrs by high-throughput microscopy; type: functional, cell-based
HepG2 [14] = assay: Induction of apoptosis in human HepG2 cells assessed as increase in necrotic cells at 15 uM measured after 24 hrs by Annexin V-FITC/propidium iodide staining based flow cytometry; type: functional, cell-based
A549 [15] = assay: Induction of apoptosis in human A549 cells assessed as increase in late apoptotic cells at 15 uM measured after 24 hrs by Annexin V-FITC/propidium iodide staining based flow cytometry; type: functional, cell-based
[16] = Cytotoxicity against human L02 cells assessed as reduction in cell viability measured after 24 hrs by CCK-8 assay; type: toxicity, cell-based
HepG2 [17] = assay: Induction of apoptosis in human HepG2 cells assessed as increase in late apoptotic cells at 15 uM measured after 24 hrs by Annexin V-FITC/propidium iodide staining based flow cytometry; type: functional, cell-based
[18] = Toxicity in HepG2 cell xenografted BALB/c nude mouse assessed as change in body weight at 25 to 50 uM, sc administered at 1 day interval for 9 days; type: organism-based; details: in vivo, 216 h, dose 25-50 µM, time 9 day
HepG2 [19] = assay: Induction of apoptosis in human HepG2 cells assessed as reduction in viable cells at 15 uM measured after 24 hrs by Annexin V-FITC/propidium iodide staining based flow cytometry; type: functional, cell-based
A549 [20] = assay: Induction of apoptosis in human A549 cells assessed as reduction in viable cells at 15 uM measured after 24 hrs by Annexin V-FITC/propidium iodide staining based flow cytometry; type: functional, cell-based

With `CC(C)C[C@H](NC(=O)[C@H](CCCCN)NC(=O)CNC(=O)[C@H](CC(C)C)NC(=O)[C@@H](NC(=O)[C@@H](NC(=O)[C@H](CC(C)C)NC(=O)[C@H](CCC(=O)O)NC(=O)[C@@H](N)Cc1c[nH]c2ccccc12)C(C)C)C(C)C)C(=O)N[C@@H](Cc1ccc(O)cc1)C(=O)NCC(=O)N[C@@H](CCCNC(=N)N)C(=O)N[C@@H](CCCCN)C(=O)N[C@@H](CCCCN)C(=O)N[C@@H](CCCNC(=N)N)C(=O)N[C@@H](CCCNC(=N)N)C(=O)N[C@@H](CCC(N)=O)C(=O)N[C@@H](CCCNC(=N)N)C(=O)N[C@@H](CCCNC(=N)N)C(=O)N[C@@H](CCCNC(=N)N)C(=O)O` (H-WELVVLGKLYGRKKRRQRRR-OH) the IC50 at 24 h [1] was 32.9 µM, the Activity (BEAS-2B) was “Non-Toxic” and the Activity (HepG2 [2]; DDE = dose-dependent effect) was “Dde”. The IC50 (HepG2 [2]) was 31.2 µM, the Activity (A549 [3]) was “Active” and the Activity (HepG2 [4]) was “Active”. For the same molecule, the Activity (HepG2 [5]) was “Active”, the Activity (HepG2 [6]) was “Active” and the IC50 (A549 [7]) was 30.9 µM. For the same molecule, the Activity (A549 [7]; DDE = dose-dependent effect) was “Dde”, the Activity (A549 [8]) was “Active” and the TGI (HepG2 [9]) was “Dde”. The Activity (HepG2 [10]) was “Active”, the Activity (L02) was “Non-Toxic” and the Activity (HepG2 [11]) was “Active”. The Activity (HepG2 [12]) was “Active”, the Activity (HepG2 [13]) was “Active” and the Activity (HepG2 [14]) was “Active”. The Activity (A549 [15]) was “Active”, the IC50 at 24 h [16] was 63.9 µM and the Activity (HepG2 [17]) was “Active”. For the same molecule, the Activity [18] was “Non-Toxic”.
For `CC[C@H](C)[C@H](NC(=O)[C@H](CCCCN)NC(=O)[C@H](CC(N)=O)NC(=O)[C@H](CCCNC(=N)N)NC(=O)[C@H](Cc1ccccc1)NC(=O)[C@H](CCCCN)NC(=O)[C@H](CCCNC(=N)N)NC(=O)[C@H](CC(C)C)NC(=O)[C@H](CCCNC(=N)N)NC(=O)[C@H](CCCCNC(=O)[C@H](CCCCN)NC(=O)[C@H](CCC(=O)O)NC(=O)[C@H](CCCCN)NC(=O)[C@@H](NC(=O)[C@H](CCCCN)NC(=O)[C@H](CC(N)=O)NC(=O)[C@H](CCCNC(=N)N)NC(=O)[C@H](Cc1ccccc1)NC(=O)[C@H](CCCCN)NC(=O)[C@H](CCCNC(=N)N)NC(=O)[C@H](CC(C)C)NC(=O)[C@H](CCCNC(=N)N)NC(=O)[C@H](CCCCN)NC(=O)[C@H](CCCNC(=N)N)NC(=O)[C@H](CC(C)C)NC(=O)CN)[C@@H](C)CC)NC(=O)[C@H](CCCNC(=N)N)NC(=O)[C@H](CC(C)C)NC(=O)CN)C(=O)N[C@@H](CCCCN)C(=O)N[C@@H](CCC(=O)O)C(=O)N[C@@H](CCCCN)C(=O)O` (I: H-GLRKRLRKFRNKIKEK / II: H-GLRKRLRKFRNKIKEK-OH; amide I:C-II:4), the IC50 at 24 h [1] was 93.6 µM, the Activity (BEAS-2B) was “Non-Toxic” and the IC50 (HepG2 [2]) was 34.8 µM. For the same molecule, the Activity (HepG2 [6]) was “Active”, the IC50 (A549 [7]) was 56.2 µM and the Activity (A549 [8]) was “Active”. For the same molecule, the Activity (HepG2 [19]) was “Active”, the Activity (L02) was “Non-Toxic” and the IC50 at 24 h [16] was 70.7 µM. The Activity (A549 [20]) was “Active”.
